Test results published in paper PMC11428593 (Antibiotics, 2024).
In brackets after ≈: the same amount, converted by molar mass. Several values for one entry are separate records, joined by “and”; a condition that tells them apart may be missing. Equal values may be shown once. Read-outs that look alike come from different tables or passages of the source.

Tests used:
MRSA USA300LAC [1] = test: MIC by broth microdilution (CLSI); format: cell-based, Staphylococcus aureus; conditions: for MIC: Staphylococcus aureus, MRSA USA300LAC, MHB, 37 °C, 16 h, read-out: MIC
Experimental: (§1) The MIC values of the alkyl pyridinol derivatives against the S. aureus strain ATCC 25923, MRSA strains ATCC 33591, ATCC BAA-44, and USA300LAC, as well as the P. aeruginosa strain ATCC 27853, were determined by following the CLSI guidelines for the broth microdilution antibiotic sensitivity testing protocol. In brief, the overnight cultures were diluted into Mueller Hinton Broth (MHB) to a final inoculum concentration of 5 × 10^5 CFU/mL (O.D600nm = 0.00001) and dispensed into a 96-well polystyrene plate (Alkali Scientific, Fort Lauderdale, FL, USA). Alkyl pyridine compounds were diluted into inoculated MHB to the indicated concentrations from stock solutions that would allow for DMSO concentrations below 5%, resulting in a total volume of 200 μL per well. The plates were subsequently incubated at 37 °C for 16 h at 300 rpm. The MIC values, which are defined as the lowest compound concentration that inhibited growth, were determined from three biological replicates.

[2] = system: S. aureus strain USA300LAC; test: Checkerboard assay with JC-01-074 (FIC index); format: cell-based, Staphylococcus aureus; conditions: MHB, 37 °C, 20 h, antibiotic combined with JC-01-074
Experimental: Therefore, we tested whether the membrane-disrupting effects of JC-01-074 could increase the sensitivity of the S. aureus strain USA300LAC to antibiotics of different classes; for instance, by facilitating their uptake into the cytoplasm. […] Antibiotic concentrations were prepared by the microbroth dilution in MHB based on their MIC values (Table 1) to obtain the final concentrations as outlined in the 96-well plate scheme for each antibiotic tested (Supplementary Figure S3). Overnight USA300LAC cultures were diluted to 5 × 10^5 CFU/mL in MHB, and the growth was recorded at 37 °C and 200 rpm for 20 h in the presence and absence of the indicated antibiotic.
FICs were calculated as the ratio of the MIC of the antimicrobial in combination with the MIC of the antimicrobial alone. Interactions were categorized as synergistic (<0.5), additive or no interaction (0.5–2), and antagonistic (>2). FICs were calculated from three biological replicates.
Following previous studies, the checkerboard assay was employed to determine whether JC-01-074 had synergistic effects in combination with members of different antibiotic classes. The indicated antibiotics tested in combination were first serially diluted two-fold in MHB on a longitudinal axis in a 96-well polystyrene plate. JC-01-074 was then serially diluted two-fold across the 96-well plate horizontal axis. The plates were inoculated with USA300LAC to a final inoculum concentration of 5 x10^5 CFU/mL (O.D.600nm = 0.0001) and incubated overnight at 37 °C for 20 h. The growth was measured at 600 nm in a Tecan 200 Infinite Pro microplate reader. The fractional inhibitory concentration was calculated as follows:FIC = MICJC-01-074 + antibiotics/[…]
The classification of interactions was based on the FIC index: interactions were categorized as synergistic (FIC ≤ 0.5), additive/no interaction (FIC 0.5–2.0), and antagonistic (FIC > 2.0).

S. aureus/MRSA strains = test: MIC by broth microdilution, S. aureus/MRSA strains; format: cell-based, Staphylococcus aureus; conditions: for MIC: Staphylococcus aureus, MRSA, S. aureus/MRSA strains tested, strain not singled out, read-out: MIC
Text: (§2) To assess the impact of the nitrogen position in our newly synthesized anaephene derivates, we analyzed their antimicrobial activities against various S. aureus strains, including ATCC 25,923 and the two methicillin-resistant S. aureus (MRSA) strains ATCC 33,591 and ATCC BAA-44. […] We determined the minimum inhibitory concentrations (MIC) of each of our compounds against the different bacterial strains by broth microdilution following the CLSI guidelines. As expected, all five compounds tested were completely ineffective against the Gram-negative P. aeruginosa strain ATCC 27,853 (Table 1).
as §1

S. aureus ATCC 25923 = test: MIC by broth microdilution (CLSI); format: cell-based; conditions: Staphylococcus aureus, ATCC25923, MHB, 37 °C, 16 h
Text: as §2, §1

MRSA ATCC BAA-44 = test: MIC by broth microdilution (CLSI); format: cell-based; conditions: Staphylococcus aureus, MHB, 37 °C, 16 h
Text: as §2, §1

P. aeruginosa ATCC 27853 = test: MIC by broth microdilution (CLSI); format: cell-based; conditions: Pseudomonas aeruginosa, ATCC27853, MHB, 37 °C, 16 h
Text: as §2, §1

MRSA ATCC 33591 = test: MIC by broth microdilution (CLSI); format: cell-based; conditions: Staphylococcus aureus, MHB, 37 °C, 16 h
Text: as §2, §1

[3] = system: 3T3 mouse embryonic fibroblast cells; test: MTT cytotoxicity assay; format: cell-based; conditions: 3T3 cells; for IC50: Mus musculus, NIH3T3, 24 h
Experimental: To gauge the potential for toxicity of the new alkyl pyridinol derivates, we tested their cytotoxicity by examining the metabolic activity of 3T3 mouse embryonic fibroblast cells using the tetrazolium dye 3-(4,5-dimethylthiazol-2-yl)-2,5-diphenyltetrazolium bromide (MTT), as has been done before. The dye is reduced by NAD(P)H-dependent cellular oxidoreductases, resulting in the formation of the insoluble formazan with its purple color, which can be quantified. 3T3 cells were treated with different concentrations of the alkyl pyridinol compounds for 24 h, and the absorbance of the MTT-treated cell culture supernatant was measured at 540 nm. Absorbances were plotted against concentrations of the compound added (Supplementary Figure S2), and IC50, the concentration of a drug required for 50% metabolic inhibition, was calculated for each compound. […] However, the concentrations at which these compounds compromise 3T3 mouse embryonic fibroblast cells are well above their reported MICs (Table 2).
3T3 cells (male mouse embryonic fibroblast Flp-In cells, Thermo Fisher, Waltham, MA, USA) were cultured in D-MEM (Corning, Corning, NY, USA) supplemented with 10% Fetal Clone III (Cytiva Hyclone, Bengaluru, India) and L-Glutamine (Alfa Aesar, Haverhill, MA, USA) at 37 °C and 5% CO2. To determine the compound’s toxicity, 3T3 cells were seeded at a density of 10,000 cells/well into 96-well plates (Fisherbrand, Waltham, MA, USA) and cultured as described above. After 16 h, the culture medium was extracted and replaced by supplemented D-MEM without phenol red (Corning, Glendale, AZ, USA) containing individual compounds in the indicated concentrations. Furthermore, 1% sodium dodecyl sulfate (SDS) and 2% dimethyl sulfoxide (DMSO), equivalent to the volume of the DMSO in the highest compound concentration, were used as the cell death and vehicle control, respectively. Moreover, 16 h after compound treatment, the culture medium was extracted again and replaced by fresh supplemented D-MEM without phenol red. Subsequently, 10 µL of 5 mg/mL MTT reagent (Alfa Aesar, Haverhill, MA, USA), dissolved in DMSO, was added to each well, and the cells were incubated for 2 h at 37 °C and 5% CO2. Next, 85 µL of the culture supernatant was removed from each well, mixed with 50 µL of DMSO, and incubated in an optical grade 96-well plate (Fisherbrand, Waltham, MA, USA) in a shaking incubator at 37 °C and 250 rpm. The absorbance of the MTT-treated cell culture supernatant was measured at 540 nm in an ELx808 plate reader (Biotek, Winooski, VT, USA).

USA300LAC cells = test: Propidium iodide uptake assay (membrane damage); format: cell-based, Staphylococcus aureus; conditions: up to 2× MIC, 1 h exposure
Text: The alkyl pyridinol derivates synthesized in this study are characterized by high lipophilicity. To determine whether and to what extent these compounds incorporate into and disrupt the phospholipid bilayer of the S. aureus cell envelope, we performed a propidium iodide (PI) uptake assay. Given the membrane-impermeable nature of PI, the fluorophore can be used to assess membrane disruption in cells by measuring its non-specific interaction with DNA, which leads to enhanced fluorescence. […] The extent of membrane damage caused by JC-01-074 occurred in a dose-dependent manner.
Figure 4 JC-01-074 causes significant membrane damage in S. aureus. Membrane damage was evaluated via propidium iodide (PI) staining. […] Treatment of USA300LAC with 2.5% DMSO, 4 µg/mL vancomycin, and 0.25% SDS were included as negative and positive controls, respectively. Cells were collected, washed, resuspended in PBS, and stained with 1 µM PI. PI fluorescence was measured (exc./em. wavelengths: 535/615 nm) and normalized to OD600nm. One-way ANOVA, Dunnett’s multiple-comparison test (* p < 0.05, **** p < 0.0001); (n = 3, ±S.D.).
The plasma membrane integrity was determined using the Propidium Iodide Uptake assay, as previously described. Briefly, the overnight cultures of USA300LAC were diluted into fresh TSB media, grown to an early log phase at 37 °C and 300 rpm, and treated with either DMSO, an alkyl pyridinol derivate, vancomycin, or SDS at the indicated concentrations for 1 h. Following two washing steps, the cells were then resuspended in phosphate-buffered saline (PBS), pH = 7.4, and subsequently stained with 1 µM propidium iodide (PI). The PI fluorescence intensity was determined at an excitation wavelength of 535 nm and an emission wavelength of 615 nm.

MRSA USA300LAC [4] = test: Minimal bactericidal concentration (MBC); format: cell-based, Staphylococcus aureus; conditions: for bactericidal or bacteriostatic effect: USA300LAC, in words
Experimental: In brief, 10 µL of each culture was serially diluted and plated onto prewarmed LB agar and incubated overnight at 37 °C under static conditions to observe the colony-forming units (CFUs). The concentration at which no CFUs were observed was recorded as the MBC.

[5] = 24 h treatment, mean ± S.D., read-out: IC50

| SMILES | MIC (MRSA USA300LAC [1]) [µg/mL] | interaction with JC-01-074 (sum of FIC values) [2] | MIC (S. aureus ATCC 25923) [µg/mL] | MIC (MRSA ATCC BAA-44) [µg/mL] | MIC (P. aeruginosa ATCC 27853) [µg/mL] | MIC (MRSA ATCC 33591) [µg/mL] | IC50 [3, 5] | other results |
| --- | --- | --- | --- | --- | --- | --- | --- | --- |
| CNC(C)C1CCC(N)C(OC2C(N)CC(N)C(OC3OCC(C)(O)C(NC)C3O)C2O)O1 (stereo not drawn) [Gentamycin] | 1 (≈ 2.09 µM) | additive (additive/no interaction (FIC 0.5–2.0)) | – | – | – | – | – | – |
| CC1(C)S[C@@H]2[C@H](NC(=O)[C@H](N)c3ccccc3)C(=O)N2[C@H]1C(=O)O [Ampicillin] | 2.33 (≈ 6.67 µM) | additive (additive/no interaction (FIC 0.5–2.0)) | – | – | – | – | – | – |
| C[C@H]1c2cccc(O)c2C(=O)C2=C(O)[C@]3(O)C(=O)C(C(N)=O)=C(O)[C@@H](N(C)C)[C@@H]3[C@@H](O)[C@@H]21 [Doxycycline] | 0.125 (≈ 0.281 µM) | antagonistic (antagonistic (FIC > 2.0)) | – | – | – | – | – | – |
| CCCCCCCCCC(=O)N[C@@H](Cc1c[nH]c2ccccc12)C(=O)N[C@H](CC(N)=O)C(=O)N[C@@H](CC(=O)O)C(=O)N[C@@H]1C(=O)NCC(=O)N[C@@H](CCCN)C(=O)N[C@@H](CC(=O)O)C(=O)N[C@H](C)C(=O)N[C@@H](CC(=O)O)C(=O)NCC(=O)N[C@H](CO)C(=O)N[C@@H]([C@H](C)CC(=O)O)C(=O)N[C@@H](CC(=O)c2ccccc2N)C(=O)O[C@@H]1C [daptomycin] | – | – | – | – | – | – | – | MIC (1× MIC as used for microscopy) (MRSA USA300LAC [1]; USA300LAC, stated in figure legend): 4 µg/mL |
| O=C(N[C@H](CO)[C@H](O)c1ccc([N+](=O)[O-])cc1)C(Cl)Cl [Chloramphenicol] | 4 (≈ 12.4 µM) | – | – | – | – | – | – | – |
| CCCCCCCCCC#Cc1cc(O)ccn1 [EA-02-011] | – | – | 32 (≈ 130 µM) | 32 (≈ 130 µM) | > 128 | 32 (≈ 130 µM) | 43.6 µM and 10.7 µg/mL | MIC (S. aureus/MRSA strains): 32 µg/mL (≈ 130 µM); IC50 of single biological replicates (Figure S2) ([3]; 24 hours, one value per biological replicate, listed as EA-02-11): 10.9 µg/ml and 8.6 µg/ml; IC50 ([3]; 24 hours, one value per biological replicate, read-out: IC50 of single biological replicates (Figure S2)): 12.7 µg/mL |
| CCCCCCCCCC#Cc1cc(O)cc(C#CCCCCCCCCC)n1 [JC-01-083] | – | – | > 128 | > 128 | > 128 | > 128 | 78.2 µM and 31 µg/mL | antimicrobial activity against S. aureus/MRSA strains (S. aureus/MRSA strains; in words): completely inactive; IC50 of single biological replicates (Figure S2) ([3]; 24 hours, one value per biological replicate, listed as JC-01-83): 32 µg/ml and 43.5 µg/ml and 27.7 µg/ml and 20.8 µg/ml |
| O=C(O)c1cn(C2CC2)c2cc(N3CCNCC3)c(F)cc2c1=O [Ciprofloxacin] | – | antagonistic (antagonistic (FIC > 2.0)) | – | – | – | – | – | – |
| CCCCCCCCCC#Cc1cc(O)cc(Br)n1 [EA-02-009] | 32 (≈ 98.7 µM) | – | 1 (≈ 3.08 µM) | 1 (≈ 3.08 µM) | > 128 | 0.5 (≈ 1.54 µM) | 107 ± 82.3 µM | MIC (S. aureus/MRSA strains): 0.5 to 1 µg/mL (≈ 1.54 to 3.08 µM); changes in PI intensity (USA300LAC cells): minimal changes; MBC (MRSA USA300LAC [4]; Staphylococcus aureus, MRSA USA300LAC, concentration at which no CFUs were observed): > 128 µg/mL; bactericidal or bacteriostatic effect (MRSA USA300LAC [4]): bacteriostatic; bactericidal or bacteriostatic effect (MRSA USA300LAC [4]; listed as EA-002-009): no significant killing; IC50 of single biological replicates (Figure S2) ([3]; 24 hours, one value per biological replicate, listed as EA-02-09): 16.1 µg/ml and 17.4 µg/ml and 31.4 µg/ml and 73.2 µg/ml |
